Experimental data reported in patent US7253202B2, “Substituted benzodioxepines” (Merck Patent GmbH, priority 2002, dated 2007).

Legend:
5HT1A receptor = target: T1, 5HT1A receptor (Rattus norvegicus, UniProt P19327); assay: 5-HT1A (serotonin) binding test; settings: binding to the 5HT1A receptor; read-out: 5HT1A (IC50 in nmol/l)
T1 construct: from tissue; host or cells: rat brain (hippocampal) membranes
T1 sequence (P19327 1-422): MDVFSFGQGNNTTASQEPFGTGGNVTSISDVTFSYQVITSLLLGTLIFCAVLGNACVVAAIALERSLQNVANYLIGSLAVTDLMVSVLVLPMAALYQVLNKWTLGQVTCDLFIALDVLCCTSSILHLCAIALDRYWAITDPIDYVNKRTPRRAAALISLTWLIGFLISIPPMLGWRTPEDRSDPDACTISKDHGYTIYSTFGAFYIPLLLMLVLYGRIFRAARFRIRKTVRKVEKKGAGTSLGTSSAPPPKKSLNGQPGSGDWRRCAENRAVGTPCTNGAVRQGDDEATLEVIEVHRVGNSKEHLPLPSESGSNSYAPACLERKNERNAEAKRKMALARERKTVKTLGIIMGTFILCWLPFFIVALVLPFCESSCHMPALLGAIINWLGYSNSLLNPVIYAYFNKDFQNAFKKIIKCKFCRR
Description: Binding properties of the compounds of the formula I can be determined, for example, by the 5-HT1A (serotonin) binding test (Matzen et al., J. Med. Chem., 43 (2000), 1149-1157, in particular page 1156 with reference to Eur. J. Pharmacol.: 140 (1987), 143-155).
The binding properties to the 5HT1A receptor was determined with the aid of the 5-HT1A (serotonin) binding test (Matzen et al., J. Med. Chem., 43 (2000), 1149-1157, in particular page 1156 with reference to Eur. J. Pharmacol.: 140 (1987), 143-155).

serotonin reuptake = target: T2, serotonin reuptake (Rattus norvegicus, UniProt P31652); assay: Serotonin reuptake inhibition by synaptosomal uptake inhibition (Wong et al.); format: biochemical; settings: read-out: SSRI (IC50 in nmol/l)
T2 construct: from tissue
T2 sequence (P31652 whole entry): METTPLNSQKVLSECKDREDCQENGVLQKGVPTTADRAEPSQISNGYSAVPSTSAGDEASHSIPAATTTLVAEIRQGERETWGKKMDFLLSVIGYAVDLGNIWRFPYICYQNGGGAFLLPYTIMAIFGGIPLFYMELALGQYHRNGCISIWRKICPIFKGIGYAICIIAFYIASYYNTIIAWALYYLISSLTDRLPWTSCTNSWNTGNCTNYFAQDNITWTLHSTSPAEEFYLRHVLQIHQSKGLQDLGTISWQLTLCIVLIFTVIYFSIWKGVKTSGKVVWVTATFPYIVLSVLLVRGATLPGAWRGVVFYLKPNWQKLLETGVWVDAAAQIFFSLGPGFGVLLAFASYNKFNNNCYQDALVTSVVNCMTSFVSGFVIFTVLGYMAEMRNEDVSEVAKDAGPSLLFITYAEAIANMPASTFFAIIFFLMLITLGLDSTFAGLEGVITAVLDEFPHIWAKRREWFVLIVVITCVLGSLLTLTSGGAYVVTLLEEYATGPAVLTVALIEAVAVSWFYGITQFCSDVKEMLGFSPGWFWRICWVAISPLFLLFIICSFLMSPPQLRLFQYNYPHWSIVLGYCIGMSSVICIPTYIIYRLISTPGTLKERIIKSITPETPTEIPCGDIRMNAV
Description: For ex-vivo detection of serotonin reuptake inhibition, use can be made, for example, of synaptosomal uptake inhibition (Wong et al., Neuropsychopharmacol. 8 (1993), 23-33) and p-chloroamphetamine antagonism (Fuller et al., J. Pharmacol. Exp. Ther. 212 (1980), 115-119).
The serotonin reuptake inhibition was investigated with the aid of synaptosomal uptake inhibition by the method of Wong et al. (Neuropsycho-pharmacol. 8 (1993), 23-33).

5-HT4 receptor = 5-HT4 receptor (UniProt O70528); assay: 5-HT4 receptor binding test according to Grossman et al.; settings: binding to the 5-HT4 receptor; read-out: 5HT4 (IC50 in nmol/l)
Description: For determination of the binding properties of the compounds of the formula I to the 5-HT4 receptor, use can be made of the test according to Grossman et al. (Grossman et al., Br. J. Pharmacol. 109, (1993), 618-24).
In order to determine the binding properties to the 5-HT4 receptor, use was made of the test in accordance with Grossman et al. (Grossman et al., Br. J. Pharmacol. 109, (1993), 618-24).

| melting point | IC50 (5HT1A receptor) | IC50 (serotonin reuptake) | IC50 (5-HT4 receptor) | Structure (SMILES) |
| --- | --- | --- | --- | --- |
| 78 °C |  |  |  | N#Cc1ccc2[nH]cc(CCCCNCC3CCOc4ccccc4O3)c2c1 (stereo not shown) (hydrate or solvate) [EMD 87322] |
| 166 to 168 °C | 0.5 nmol/L | 8 nmol/L |  | N#Cc1ccc2[nH]cc(CCCCNC3COc4ccccc4OC3)c2c1 [EMD 76066, N-(3,4-dihydro-2H-1,5-benzodioxepin-3-yl)-4-(5-cyano-3-indole)butylamine] |
|  | 3 nmol/L | 4 nmol/L |  | Cc1ccc2c(c1)OCC(NCCCCc1c[nH]c3ccc(C#N)cc13)CO2 (stereo not shown) [EMD 85350, 3-{4-[7-methyl-3,4-dihydro-2H-1,5-benzodioxepin-3-ylamino]butyl}indole-5-carbonitrile] |
|  | 2 nmol/L | 3 nmol/L |  | Cc1cccc2c1OCC(NCCCCc1c[nH]c3ccc(C#N)cc13)CO2 (stereo not shown) [EMD 87319, 3-{4-(6-methyl-3,4-dihydro-2H-1,5-benzodioxepin-3-ylamino)butyl}indole-5-carbonitrile] |
|  | 4 nmol/L | 0.6 nmol/L | 8.4 nmol/L | N#Cc1ccc2[nH]cc(CCCCNCC3CCOc4ccccc4O3)c2c1 (stereo not shown) [EMD 87322] |
|  | 0.6 nmol/L | 1 nmol/L |  | COc1cccc2c1OCC(NCCCCc1c[nH]c3ccc(C#N)cc13)CO2 (stereo not shown) [EMD 87326, 3-[4-(6-methoxy-3,4-dihydro-2H-1,5-benzodioxepin-3-ylamino)butyl]indole-5-carbonitrile] |
